The subject of the assay is Experimental Autoimmune Uveitis (EAV). The following applies: 25 to 50 mg/kg/day i.m. on 7 consecutive days commencing 7 days after immunization with bovine S antigen; histopathology on day 14; compared with olive oil control groups.

Turning to (Nva)^2-Cyclosporine, the “number of animals evidencing EAV” value is recorded as “substantial reduction”.

The record behind these values is patent EP0170623B1, “Novel pharmaceutical use of (NVA)2-cyclosporine” (SANDOZ AG, priority 1984, dated 1990).
